The source made the active and inactive calls. The rule behind the calls is not given here.
Assays:
[1] = target: T1, Serine/threonine-protein kinase TNNI3K (Homo sapiens) (UniProt Q59H18); experiment: Inhibition of TNNI3K (unknown origin) at 10 uM
T1 sequence (whole entry): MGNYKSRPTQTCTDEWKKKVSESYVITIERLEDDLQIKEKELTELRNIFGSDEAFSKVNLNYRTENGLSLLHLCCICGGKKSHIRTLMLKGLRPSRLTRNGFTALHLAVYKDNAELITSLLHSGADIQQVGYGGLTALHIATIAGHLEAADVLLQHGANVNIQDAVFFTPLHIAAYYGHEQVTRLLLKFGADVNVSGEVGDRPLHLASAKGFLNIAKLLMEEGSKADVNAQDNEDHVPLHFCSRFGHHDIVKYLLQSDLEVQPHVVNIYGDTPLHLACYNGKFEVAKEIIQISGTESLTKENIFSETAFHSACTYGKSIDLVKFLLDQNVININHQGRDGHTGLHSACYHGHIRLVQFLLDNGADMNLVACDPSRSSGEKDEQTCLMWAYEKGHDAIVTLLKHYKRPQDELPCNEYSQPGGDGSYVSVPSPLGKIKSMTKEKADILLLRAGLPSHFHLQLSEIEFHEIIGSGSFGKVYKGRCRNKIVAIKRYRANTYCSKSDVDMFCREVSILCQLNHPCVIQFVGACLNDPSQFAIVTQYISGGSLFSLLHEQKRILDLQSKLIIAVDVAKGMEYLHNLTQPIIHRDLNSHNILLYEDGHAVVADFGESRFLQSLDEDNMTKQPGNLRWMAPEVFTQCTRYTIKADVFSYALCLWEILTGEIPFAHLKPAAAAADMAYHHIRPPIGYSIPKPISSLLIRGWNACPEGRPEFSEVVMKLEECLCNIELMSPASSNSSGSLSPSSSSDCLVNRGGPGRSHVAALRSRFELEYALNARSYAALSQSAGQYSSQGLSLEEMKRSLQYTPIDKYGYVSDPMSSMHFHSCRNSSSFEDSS

[2] = Increase in C20:0/C16:0 LPC level in ABCD1 knock out mouse CNS at 10 mg/kg, po qd measured after 3 months of dosing by LC-MS/MS analysis; assay type: functional; settings: 2190 h
[3] = AUC (infinity) in Beagle dog at 3 mg/kg, po upto 24 hrs by LC/MS/MS analysis; assay type: ADME, organism-based, Canis lupus familiaris; set-up: time < 24 hrs, dose 3 mg/kg, route po; settings: in vivo
[4] = target: T2, Adenosine receptor A3 (Homo sapiens) (UniProt P0DMS8); experiment: Inhibition of Adenosine A3 Receptor (unknown origin) at 10 uM
T2 sequence (whole entry): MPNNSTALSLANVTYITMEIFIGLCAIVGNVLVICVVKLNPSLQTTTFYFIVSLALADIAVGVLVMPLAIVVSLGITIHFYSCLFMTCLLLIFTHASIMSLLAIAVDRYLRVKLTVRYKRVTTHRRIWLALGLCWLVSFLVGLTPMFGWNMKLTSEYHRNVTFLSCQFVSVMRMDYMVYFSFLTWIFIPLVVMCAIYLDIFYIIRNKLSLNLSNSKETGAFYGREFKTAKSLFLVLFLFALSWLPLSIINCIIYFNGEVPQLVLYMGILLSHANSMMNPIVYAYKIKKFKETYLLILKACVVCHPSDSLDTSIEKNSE

[5] = Reduction in C26:0 LPC level in Cynomolgus monkey plasma at 15 mg/kg, po qd for 13 weeks by LC-MS/MS analysis (reference value: 2.495 ng/ml); assay type: functional, Macaca fascicularis
[6] = target: T3, Very long chain fatty acid elongase 7 (Homo sapiens) (UniProt A1L3X0); experiment: Inhibition of ELOVL-7 in human HEK2936E cells assessed as increase in C20:0 lipo phosphatidyl choline synthesis at 100 nM in presence of 13C-labeled acetate measured after 48 hrs; assay type: cell-based
T3 sequence (whole entry): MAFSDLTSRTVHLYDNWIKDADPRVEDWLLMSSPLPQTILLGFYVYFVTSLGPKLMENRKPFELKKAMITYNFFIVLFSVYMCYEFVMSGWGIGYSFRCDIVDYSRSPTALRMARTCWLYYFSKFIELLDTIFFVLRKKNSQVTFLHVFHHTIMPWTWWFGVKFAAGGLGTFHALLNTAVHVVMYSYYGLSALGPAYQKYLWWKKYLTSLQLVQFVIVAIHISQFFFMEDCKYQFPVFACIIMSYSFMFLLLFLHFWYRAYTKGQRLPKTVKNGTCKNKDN

[7] = Unbound brain-to-plasma concentration ratio in rat at 3 mg/kg, po measured after 120 mins; assay type: ADME, organism-based; settings: brain and plasma, read-out: K(p,uu,brain)
[8] = Oral bioavailability in Sprague-Dawley rat at 3 mg/kg upto 24 hrs by LC/MS/MS analysis; assay type: ADME, organism-based; settings: in vivo
[9] = Oral bioavailability in Cynomolgus monkey at 3 mg/kg upto 24 hrs by LC/MS/MS analysis; assay type: ADME, organism-based, Macaca fascicularis; settings: in vivo
[10] = Cmax in Beagle dog at 3 mg/kg, po upto 24 hrs by LC/MS/MS analysis; assay type: ADME, organism-based, Canis lupus familiaris; set-up: dose 3 mg/kg, time < 24 hrs, route po; settings: in vivo
[11] = Reduction in C26:0 LPC level in ELOVL-1 KO clonal human HEK-293T cells in presence of 13C-labeled acetate measured after 48 hrs by mass spectroscopy relative to control; assay type: functional; set-up: scale not given: the % may be the effect or the level left
[12] = Half life in Sprague-Dawley rat at 1 mg/kg, iv upto 48 hrs by LC/MS/MS analysis; assay type: ADME, organism-based; settings: in vivo
[13] = target: T4, Very long chain fatty acid elongase 1 (Homo sapiens, UniProt Q9BW60); experiment: Inhibition of ELOVL1 in CALD patient-derived human lymphocyte assessed as reduction of C26:0 VLCFA synthesis incubated for 48 hrs by cellular assay; assay type: cell-based
T4 sequence (Q9BW60 whole entry): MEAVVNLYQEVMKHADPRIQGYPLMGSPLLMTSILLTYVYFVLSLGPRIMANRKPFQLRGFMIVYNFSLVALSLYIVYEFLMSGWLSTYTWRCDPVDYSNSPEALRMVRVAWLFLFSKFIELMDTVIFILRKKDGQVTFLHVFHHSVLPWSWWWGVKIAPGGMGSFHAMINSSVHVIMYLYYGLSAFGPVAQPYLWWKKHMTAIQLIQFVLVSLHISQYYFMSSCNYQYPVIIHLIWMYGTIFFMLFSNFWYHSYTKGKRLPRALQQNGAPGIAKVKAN

[14] = Cmax in Sprague-Dawley rat at 3 mg/kg, po upto 24 hrs by LC/MS/MS analysis; assay type: ADME, organism-based; set-up: dose 3 mg/kg, time < 24 hrs, route po; settings: in vivo
[15] = target: T5, Very long chain fatty acid elongase 1 (Homo sapiens) (UniProt Q9BW60); experiment: Inhibition of ELOVL-1 in human HEK2936E cells assessed as reduction in C26:0 lysophosphatidyl choline synthesis at 100 nM in presence of 13C-labeled acetate measured after 48 hrs; assay type: cell-based
T5 sequence (whole entry): T4 sequence (Q9BW60 whole entry)

[16] = Toxicity in juvenile Sprague-Dawley rat assessed as clonic convulsions 5 to 75 mg/kg/day, po treatment started from postnatal day 75 to 114 days; assay type: organism-based; settings: in vivo, dose lower 5 mg/kg/day, time lower 75 day, dose upper 75 mg/kg/day, time upper 114 day
[17] = Toxicity in Sprague-Dawley rat assessed as decrease in body weight at 5 to 50 mg/kg/day, po administered for 8 weeks; assay type: organism-based; settings: in vivo, 1344 h, dose 5-50 mg/kg/day
[18] = Toxicity in Cynomolgus monkey assessed as skin lesions at 1 mg/kg/day, po observed from 8 to 13 weeks; assay type: organism-based, Macaca fascicularis; settings: in vivo, time 8-13 weeks

inhibition [1]: > 50%
AUC(0-inf) [3]: 1250 ng·h/mL
inhibition [4]: > 50%
inhibition [6]: Active
Kp uu at 2 h [7]: 1.1
F [8]: 66%
bioavailability [9]: 100%
Cmax [10]: 261 ng/mL
half-life [12]: 3.5 h
IC50 [13]: 15 nM
Cmax [14]: 174 ng/mL
inhibition [15]: Active
SMILES: O=C(Nc1ccn(-c2ccnc(F)c2)n1)C1(c2ccccc2F)CC1
Activity [2]: 38%
Activity [5]: 0.4475 ng/mL
Activity [11]: 90%
Activity [16]: Toxic
Activity [17]: Toxic
Activity [18]: Non-Toxic
